# Biological target: T1, human orexin-2 receptor (OX2R) (Homo sapiens, UniProt O43614)
# T1 construct: expressed in transfected cells
# T1 sequence (O43614 1-444): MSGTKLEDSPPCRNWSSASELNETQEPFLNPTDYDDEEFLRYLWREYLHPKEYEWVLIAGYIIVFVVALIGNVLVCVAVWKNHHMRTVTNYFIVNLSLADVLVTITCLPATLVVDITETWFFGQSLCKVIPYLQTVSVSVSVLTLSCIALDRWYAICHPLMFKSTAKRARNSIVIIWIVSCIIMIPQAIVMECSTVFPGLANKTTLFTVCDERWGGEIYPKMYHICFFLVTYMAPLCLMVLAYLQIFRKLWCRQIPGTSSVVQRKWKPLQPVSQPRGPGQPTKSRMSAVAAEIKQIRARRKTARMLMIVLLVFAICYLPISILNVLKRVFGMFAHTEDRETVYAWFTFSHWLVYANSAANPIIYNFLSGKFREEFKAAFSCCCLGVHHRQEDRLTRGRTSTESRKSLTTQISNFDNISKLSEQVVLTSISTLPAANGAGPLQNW
# Assay: Human OX2R IP1 assay
# Format: cell-based
# Settings: T-Rex CHO cells stably overexpressing human OX2R; IP1 accumulation, 1 hr at 37 degrees C; mean EC50
# Procedure: T-Rex CHO cells stably overexpressing the human orexin-2 receptor (OX2R) were induced overnight with 1 μg/mL of doxycycline in a T225 flask. 24 hours post induction, cells were lifted with accutase and plated into a 384-well proxy plate at 30,000 cells/well. Cells were then treated with different test compounds in 1× stimulation buffer containing 10 mM Hepes, 1 mM CaCl2, 0.5 mM MgCl2, 4.2 mM KCl, 146 mM NaCl, 5.5 mM glucose, and 50 mM LiCl, pH 7.4, for 1 hr at 37 degrees C. Following incubation, the reaction was terminated by the addition of detection mix, which is composed of IP1-d2 and anti-IP1-cryptate diluted in lysis buffer as well as 1× stimulation buffer. The plates were allowed to incubate for 1 hour at room temperature and were then read in the EnVision® multimode plate reader, measuring inositol phosphate levels.
# Cisbio IP1 is a cell-based functional assay quantifying the accumulation of inositol monophosphate (IP), a metabolite released as a result of orexin 2 receptor activation through the phospholipase C-Gq signaling pathway. This is a competitive immunoassay in which the IP1 produced by the cells upon receptor activation competes with the IP1 analog coupled to the d2 fluorophore (acceptor) for binding to an anti-IP1 monoclonal antibody labeled with Eu cryptate (donor). The measured HTRF-FRET based signal is inversely proportional to the IP1 concentration produced.
# The EC50 values reported in Table 2 were obtained according to the human OX2R IP1 assay described above. Data are the mean EC50 values±S.E.M.
row,EC50 [nM],SMILES
1,1 to 10,Cn1ncc2cc([C@H]3CC[C@@H](OC[C@@H]4CN(C(=O)N5CCC5)CC[C@@H]4NS(C)(=O)=O)CC3)ccc21 [Compound 23]
2,1 to 10,Cn1ncc2cc([C@H]3CC[C@@H](OC[C@@H]4CN(C(=O)[C@@H]5CCOC5)CC[C@@H]4NS(C)(=O)=O)CC3)ccc21 [Compound 17]
3,1 to 10,COC(=O)N1CC[C@H](NS(C)(=O)=O)[C@H](CO[C@H]2CC[C@@H](c3ccc4[nH]ncc4c3)CC2)C1 [Compound 5]
4,1 to 10,CN(C)S(=O)(=O)N[C@H]1CCN(C(=O)[C@@H]2CCOC2)C[C@H]1CO[C@H]1CC[C@@H](c2ccc3c(cnn3C)c2)CC1 [Compound 31]
5,> 10,Cn1ncc2cc([C@H]3CC[C@@H](OC[C@@H]4CN(C(=O)C5COC5)CC[C@@H]4NS(C)(=O)=O)CC3)ccc21 [Compound 47]
6,> 10,CN(C)C(=O)N[C@H]1CCN(c2cccnn2)C[C@H]1CO[C@H]1CC[C@@H](c2ccc3c(cnn3C)c2)CC1 [Compound 58]
7,1 to 10,Cn1cnc2cc([C@H]3CC[C@@H](OC[C@@H]4CN(c5ccccn5)CC[C@@H]4NS(C)(=O)=O)CC3)ccc21 [Compound 8]
8,> 10,Cn1ncc2cc([C@H]3CC[C@@H](OC[C@@H]4CN(C(=O)Cc5ncccn5)CC[C@@H]4NS(C)(=O)=O)CC3)ccc21 [Compound 50]
9,< 1,Cn1ncc2cc([C@H]3CC[C@@H](OC[C@@H]4CN(c5cccnn5)CC[C@@H]4NS(=O)(=O)C(F)(F)F)CC3)ccc21 [Compound 13]
10,1 to 10,Cn1ncc2cc([C@H]3CC[C@@H](OC[C@@H]4CN(c5cnccn5)CC[C@@H]4NS(=O)(=O)C(F)(F)F)CC3)ccc21 [Compound 25]
11,1 to 10,Cn1ncc2cc([C@H]3CC[C@@H](OC[C@@H]4CN(C(=O)C5CCOC5)CC[C@@H]4NS(C)(=O)=O)CC3)ccc21 (stereo partly drawn) [Compound 59]
12,> 10,Cn1ncc2cc([C@H]3CC[C@@H](OC[C@@H]4CN(C(=O)CN5CCCCC5)CC[C@@H]4NS(C)(=O)=O)CC3)ccc21 [Compound 46]
13,< 1,CN(C)S(=O)(=O)N[C@H]1CCN(c2cccnn2)C[C@H]1CO[C@H]1CC[C@@H](c2ccc3c(cnn3C)c2)CC1 [Compound 30]
14,> 10,Cn1ncc2ccc([C@H]3CC[C@H](OC[C@@H]4CN(c5ccccn5)CC[C@@H]4NS(C)(=O)=O)CC3)cc21 [Compound 65]
15,< 1,Cn1ncc2cc([C@H]3CC[C@@H](OC[C@@H]4CN(C(=O)C5(F)CCC5)CC[C@@H]4NS(C)(=O)=O)CC3)ccc21 [Compound 11]
16,> 10,Cn1ncc2cc([C@H]3CC[C@@H](OC[C@@H]4CN(C(=O)Cc5ccncn5)CC[C@@H]4NS(C)(=O)=O)CC3)ccc21 [Compound 52]
17,1 to 10,O=S(=O)(N[C@H]1CCN(c2ccccn2)C[C@H]1CO[C@H]1CC[C@@H](c2ccc3[nH]ncc3c2)CC1)C(F)(F)F [Compound 2]
18,1 to 10,Cn1ncc2cc([C@H]3CC[C@@H](OC[C@@H]4CN(C(=O)[C@@]5(C)CCOC5)CC[C@@H]4NS(C)(=O)=O)CC3)ccc21 [Compound 28]
19,< 1,Cn1ncc2cc([C@H]3CC[C@@H](OC[C@@H]4CN(c5ccccn5)CC[C@@H]4NS(=O)(=O)C(F)(F)F)CC3)ccc21 [Compound 10]
20,1 to 10,Cn1cnc2ccc([C@H]3CC[C@@H](OC[C@@H]4CN(c5ccccn5)CC[C@@H]4NS(C)(=O)=O)CC3)cc21 [Compound 9]
21,1 to 10,Cn1ncc2cc([C@H]3CC[C@@H](OC[C@@H]4CN(C(=O)C5(F)CCC5)CC[C@@H]4NS(=O)(=O)C(F)(F)F)CC3)ccc21 [Compound 14]
22,< 1,Cn1cnc2cc([C@H]3CC[C@@H](OC[C@@H]4CN(C(=O)C5(F)CCC5)CC[C@@H]4NS(C)(=O)=O)CC3)ccc21 [Compound 16]
23,> 10,Cn1ncc2cc([C@H]3CC[C@@H](OC[C@@H]4CN(C(=O)C5CCOC5)CC[C@@H]4NS(C)(=O)=O)CC3)ccc21 (stereo partly drawn) [Compound 60]
24,1 to 10,Cn1ncc2cc([C@H]3CC[C@@H](OC[C@@H]4CN(c5cccnn5)CC[C@@H]4NS(=O)(=O)C(F)(F)F)CC3)cc(F)c21 [Compound 26]

row,EC50 [nM],SMILES
1,> 10,Cn1ncc2cc([C@H]3CC[C@@H](OC[C@@H]4CN(C(=O)C5CCO5)CC[C@@H]4NS(C)(=O)=O)CC3)ccc21 (stereo partly drawn) [Compound 53]
2,1 to 10,Cn1ncc2cc([C@H]3CC[C@@H](OC[C@@H]4CN(C(=O)C(C)(C)O)CC[C@@H]4NS(C)(=O)=O)CC3)ccc21 [Compound 21]
3,1 to 10,Cn1ncc2cc([C@H]3CC[C@@H](OC[C@@H]4CN(C(=O)C5CCOC5)CC[C@@H]4NS(=O)(=O)C(F)(F)F)CC3)ccc21 (stereo partly drawn) [Compound 33]
4,> 10,Cn1ncc2cc([C@H]3CC[C@@H](OC[C@@H]4CN(C(=O)[C@H]5CCOC5)CC[C@@H]4NS(C)(=O)=O)CC3)ccc21 [Compound 62]
5,1 to 10,Cn1ncc2cc([C@H]3CC[C@@H](OC[C@@H]4CN(C(=O)C5CC5)CC[C@@H]4NS(C)(=O)=O)CC3)ccc21 [Compound 18]
6,> 10,Cn1ncc2cc([C@H]3CC[C@@H](OC[C@@H]4CN(C(=O)Cc5cnccn5)CC[C@@H]4NS(C)(=O)=O)CC3)ccc21 [Compound 51]
7,1 to 10,Cn1cnc2ccc([C@H]3CC[C@H](OC[C@@H]4CN(c5ccccn5)CC[C@@H]4NS(C)(=O)=O)CC3)cc21 [Compound 64]
8,> 10,Cn1ncc2cc([C@H]3CC[C@@H](OC[C@@H]4CN(c5ccccn5)CC[C@@H]4NS(C)(=O)=O)CC3)ncc21 [Compound 7]
9,> 10,Cn1ncc2ccc(C3CCC(OC[C@@H]4CN(c5ccccn5)CC[C@@H]4NS(C)(=O)=O)CC3)cc21 (stereo partly drawn) [Compound 66]
10,1 to 10,Cn1ncc2cc([C@H]3CC[C@@H](OC[C@@H]4CN(C(=O)C(C)(C)C)CC[C@@H]4NS(C)(=O)=O)CC3)ccc21 [Compound 22]
11,> 10,Cn1ncc2cc([C@H]3CC[C@@H](OC[C@@H]4CN(CC(=O)N5CCCCC5)CC[C@@H]4NS(C)(=O)=O)CC3)ccc21 [Compound 61]
12,< 1,Cn1ncc2cc([C@H]3CC[C@@H](OC[C@@H]4CN(c5ccccn5)CC[C@@H]4NS(C)(=O)=O)CC3)ccc21 [Compound 3]
13,< 1,CS(=O)(=O)N[C@H]1CCN(c2ccccn2)C[C@H]1CO[C@H]1CC[C@@H](c2ccc3[nH]ncc3c2)CC1 [Compound 1]
14,1 to 10,Cn1ncc2cc([C@H]3CC[C@@H](OC[C@@H]4CN(c5cccnn5)CC[C@@H]4NS(C)(=O)=O)CC3)ccc21 [Compound 15]
15,1 to 10,Cn1cnc2ccc([C@H]3CC[C@@H](OC[C@@H]4CN(C(=O)C5(F)CCC5)CC[C@@H]4NS(C)(=O)=O)CC3)cc21 [Compound 19]
16,> 10,Cn1ncc2cc([C@H]3CC[C@@H](OC[C@@H]4CN(C(=O)CO)CC[C@@H]4NS(C)(=O)=O)CC3)ccc21 [Compound 48]
17,1 to 10,CS(=O)(=O)N[C@H]1CCN(C(=O)C2(F)CCC2)C[C@H]1CO[C@H]1CC[C@@H](c2ccc3[nH]ncc3c2)CC1 [Compound 4]
18,< 1,CNS(=O)(=O)N[C@H]1CCN(c2cccnn2)C[C@H]1CO[C@H]1CC[C@@H](c2ccc3c(cnn3C)c2)CC1 [Compound 29]
19,> 10,Cn1ncc2cc([C@H]3CC[C@@H](OC[C@@H]4CN(C(=O)CN5CCOCC5)CC[C@@H]4NS(C)(=O)=O)CC3)ccc21 [Compound 45]
20,1 to 10,COC(=O)N1CC[C@H](NS(C)(=O)=O)[C@H](CO[C@H]2CC[C@@H](c3ccc4c(cnn4C)c3)CC2)C1 [Compound 12]
21,> 10,CC(=O)N1CC[C@H](NS(C)(=O)=O)[C@H](CO[C@H]2CC[C@@H](c3ccc4c(cnn4C)c3)CC2)C1 [Compound 20]
22,> 10,Cn1cnc2ccc(C3CCC(OC[C@@H]4CN(c5ccccn5)CC[C@@H]4NS(C)(=O)=O)CC3)cc21 (stereo partly drawn) [Compound 63]
23,> 10,Cn1ccnc1CC(=O)N1CC[C@H](NS(C)(=O)=O)[C@H](CO[C@H]2CC[C@@H](c3ccc4c(cnn4C)c3)CC2)C1 [Compound 49]
24,1 to 10,Cn1ncc2cc([C@H]3CC[C@@H](OC[C@@H]4CN(C(=O)c5cncs5)CC[C@@H]4NS(C)(=O)=O)CC3)ccc21 [Compound 27]

# — patent publication US20250230141A1, “Substituted Fused Bicyclic Compounds and Related Methods of Treatment” (Alkermes, Inc., priority 2022, published 2025)
